# Test system: 292921-168-R-J2-PDC complex spheroid growth
# Assay: Anticancer human tumor 292921-168-R-J2-PDC patient-derived pancreatic carcinoma cell line growth inhibition [AhR]
# Settings: second compound 1 µM; first compound 0.00316 µM; stronger effect = lower value
# Summary of the method: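 Complex tumor spheroids co-cultured with HUVEC and human MSC stroma; AhR antagonists tested in combination with standard-of-care and investigational agents. Top concentration at or near clinical Cmax (else 10 microM), half-log dilutions; growth expressed as percent test/control.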
# 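Also: spheroids exposed to compounds for seven days after three days of growth.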
row,SMILES,"viability, T/C"
1,Nc1ncn(C2CC(O)C(CO)O2)c(=O)n1 (stereo not drawn) + Cc1cncc(-c2nc(NCCc3c[nH]c4ccccc34)c3ncn(C(C)C)c3n2)c1,80.5%

# Same assay, conditions: second compound 1 µM; first compound 0.01 µM; stronger effect = lower value
row,SMILES,"viability, T/C"
1,CC[C@@]1(O)C(=O)OCc2c1cc1n(c2=O)Cc2cc3c(CN(C)C)c(O)ccc3nc2-1 + Cc1cncc(-c2nc(NCCc3c[nH]c4ccccc34)c3ncn(C(C)C)c3n2)c1,60.3%
2,Nc1ncn(C2CC(O)C(CO)O2)c(=O)n1 (stereo not drawn) + Cc1cncc(-c2nc(NCCc3c[nH]c4ccccc34)c3ncn(C(C)C)c3n2)c1,86.9%

# Same assay, conditions: second compound 1 µM; first compound 0.0316 µM; stronger effect = lower value
row,SMILES,"viability, T/C"
1,CC[C@@]1(O)C(=O)OCc2c1cc1n(c2=O)Cc2cc3c(CN(C)C)c(O)ccc3nc2-1 + Cc1cncc(-c2nc(NCCc3c[nH]c4ccccc34)c3ncn(C(C)C)c3n2)c1,54%
2,COc1cc(C2c3cc4c(cc3C(OC3OC5COC(C)OC5C(O)C3O)C3COC(=O)C23)OCO4)cc(OC)c1O (stereo not drawn) + Cc1cncc(-c2nc(NCCc3c[nH]c4ccccc34)c3ncn(C(C)C)c3n2)c1,77.1%
3,COc1cccc2c1C(=O)c1c(O)c3c(c(O)c1C2=O)CC(O)(C(=O)CO)CC3OC1CC(N)C(O)C(C)O1 (stereo not drawn) + Cc1cncc(-c2nc(NCCc3c[nH]c4ccccc34)c3ncn(C(C)C)c3n2)c1,29.3%
4,Nc1ccn(C2OC(CO)C(O)C2(F)F)c(=O)n1 (stereo not drawn) + Cc1cncc(-c2nc(NCCc3c[nH]c4ccccc34)c3ncn(C(C)C)c3n2)c1,12%
5,Nc1ncn(C2CC(O)C(CO)O2)c(=O)n1 (stereo not drawn) + Cc1cncc(-c2nc(NCCc3c[nH]c4ccccc34)c3ncn(C(C)C)c3n2)c1,80.4%

# Same assay, conditions: second compound 1 µM; first compound 0.1 µM; stronger effect = lower value
row,SMILES,"viability, T/C"
1,CC[C@@]1(O)C(=O)OCc2c1cc1n(c2=O)Cc2cc3c(CN(C)C)c(O)ccc3nc2-1 + Cc1cncc(-c2nc(NCCc3c[nH]c4ccccc34)c3ncn(C(C)C)c3n2)c1,24.1%
2,COc1cc(C2c3cc4c(cc3C(OC3OC5COC(C)OC5C(O)C3O)C3COC(=O)C23)OCO4)cc(OC)c1O (stereo not drawn) + Cc1cncc(-c2nc(NCCc3c[nH]c4ccccc34)c3ncn(C(C)C)c3n2)c1,67%
3,COc1cccc2c1C(=O)c1c(O)c3c(c(O)c1C2=O)CC(O)(C(=O)CO)CC3OC1CC(N)C(O)C(C)O1 (stereo not drawn) + Cc1cncc(-c2nc(NCCc3c[nH]c4ccccc34)c3ncn(C(C)C)c3n2)c1,22.7%
4,Nc1ccn(C2OC(CO)C(O)C2(F)F)c(=O)n1 (stereo not drawn) + Cc1cncc(-c2nc(NCCc3c[nH]c4ccccc34)c3ncn(C(C)C)c3n2)c1,9.47%
5,Nc1ncn(C2CC(O)C(CO)O2)c(=O)n1 (stereo not drawn) + Cc1cncc(-c2nc(NCCc3c[nH]c4ccccc34)c3ncn(C(C)C)c3n2)c1,77.8%

# Same assay, conditions: second compound 1 µM; first compound 0.316 µM; stronger effect = lower value
row,SMILES,"viability, T/C"
1,COc1cc(C2c3cc4c(cc3C(OC3OC5COC(C)OC5C(O)C3O)C3COC(=O)C23)OCO4)cc(OC)c1O (stereo not drawn) + Cc1cncc(-c2nc(NCCc3c[nH]c4ccccc34)c3ncn(C(C)C)c3n2)c1,48.9%
2,COc1cccc2c1C(=O)c1c(O)c3c(c(O)c1C2=O)CC(O)(C(=O)CO)CC3OC1CC(N)C(O)C(C)O1 (stereo not drawn) + Cc1cncc(-c2nc(NCCc3c[nH]c4ccccc34)c3ncn(C(C)C)c3n2)c1,9.15%
3,Nc1ccn(C2OC(CO)C(O)C2(F)F)c(=O)n1 (stereo not drawn) + Cc1cncc(-c2nc(NCCc3c[nH]c4ccccc34)c3ncn(C(C)C)c3n2)c1,9.26%
4,Nc1ncn(C2CC(O)C(CO)O2)c(=O)n1 (stereo not drawn) + Cc1cncc(-c2nc(NCCc3c[nH]c4ccccc34)c3ncn(C(C)C)c3n2)c1,82%

# Same assay, conditions: second compound 1 µM; first compound 1 µM; stronger effect = lower value
row,SMILES,"viability, T/C"
1,COc1cc(C2c3cc4c(cc3C(OC3OC5COC(C)OC5C(O)C3O)C3COC(=O)C23)OCO4)cc(OC)c1O (stereo not drawn) + Cc1cncc(-c2nc(NCCc3c[nH]c4ccccc34)c3ncn(C(C)C)c3n2)c1,28.7%
2,COc1cccc2c1C(=O)c1c(O)c3c(c(O)c1C2=O)CC(O)(C(=O)CO)CC3OC1CC(N)C(O)C(C)O1 (stereo not drawn) + Cc1cncc(-c2nc(NCCc3c[nH]c4ccccc34)c3ncn(C(C)C)c3n2)c1,0.34%
3,Nc1ccn(C2OC(CO)C(O)C2(F)F)c(=O)n1 (stereo not drawn) + Cc1cncc(-c2nc(NCCc3c[nH]c4ccccc34)c3ncn(C(C)C)c3n2)c1,9.49%
4,Nc1ncn(C2CC(O)C(CO)O2)c(=O)n1 (stereo not drawn) + Cc1cncc(-c2nc(NCCc3c[nH]c4ccccc34)c3ncn(C(C)C)c3n2)c1,73.7%

# Same assay, conditions: second compound 1 µM; first compound 3.16 µM; stronger effect = lower value
row,SMILES,"viability, T/C"
1,COc1cc(C2c3cc4c(cc3C(OC3OC5COC(C)OC5C(O)C3O)C3COC(=O)C23)OCO4)cc(OC)c1O (stereo not drawn) + Cc1cncc(-c2nc(NCCc3c[nH]c4ccccc34)c3ncn(C(C)C)c3n2)c1,23.4%
2,COc1cccc2c1C(=O)c1c(O)c3c(c(O)c1C2=O)CC(O)(C(=O)CO)CC3OC1CC(N)C(O)C(C)O1 (stereo not drawn) + Cc1cncc(-c2nc(NCCc3c[nH]c4ccccc34)c3ncn(C(C)C)c3n2)c1,1.61%
3,Nc1ccn(C2OC(CO)C(O)C2(F)F)c(=O)n1 (stereo not drawn) + Cc1cncc(-c2nc(NCCc3c[nH]c4ccccc34)c3ncn(C(C)C)c3n2)c1,8.78%

# Same assay, conditions: second compound 1 µM; first compound 10 µM; stronger effect = lower value
row,SMILES,"viability, T/C"
1,COc1cc(C2c3cc4c(cc3C(OC3OC5COC(C)OC5C(O)C3O)C3COC(=O)C23)OCO4)cc(OC)c1O (stereo not drawn) + Cc1cncc(-c2nc(NCCc3c[nH]c4ccccc34)c3ncn(C(C)C)c3n2)c1,13.1%
2,COc1cccc2c1C(=O)c1c(O)c3c(c(O)c1C2=O)CC(O)(C(=O)CO)CC3OC1CC(N)C(O)C(C)O1 (stereo not drawn) + Cc1cncc(-c2nc(NCCc3c[nH]c4ccccc34)c3ncn(C(C)C)c3n2)c1,3.01%
3,Nc1ccn(C2OC(CO)C(O)C2(F)F)c(=O)n1 (stereo not drawn) + Cc1cncc(-c2nc(NCCc3c[nH]c4ccccc34)c3ncn(C(C)C)c3n2)c1,7.47%

# Same assay, conditions: second compound 3.16 µM; first compound 0.000316 µM; stronger effect = lower value
row,SMILES,"viability, T/C"
1,CC[C@@]1(O)C(=O)OCc2c1cc1n(c2=O)Cc2cc3c(CN(C)C)c(O)ccc3nc2-1 + Cc1cncc(-c2nc(NCCc3c[nH]c4ccccc34)c3ncn(C(C)C)c3n2)c1,69.9%

# Same assay, conditions: second compound 3.16 µM; first compound 0.001 µM; stronger effect = lower value
row,SMILES,"viability, T/C"
1,CC[C@@]1(O)C(=O)OCc2c1cc1n(c2=O)Cc2cc3c(CN(C)C)c(O)ccc3nc2-1 + Cc1cncc(-c2nc(NCCc3c[nH]c4ccccc34)c3ncn(C(C)C)c3n2)c1,67.7%

# Same assay, conditions: second compound 3.16 µM; first compound 0.00316 µM; stronger effect = lower value
row,SMILES,"viability, T/C"
1,CC[C@@]1(O)C(=O)OCc2c1cc1n(c2=O)Cc2cc3c(CN(C)C)c(O)ccc3nc2-1 + Cc1cncc(-c2nc(NCCc3c[nH]c4ccccc34)c3ncn(C(C)C)c3n2)c1,73.2%
2,Nc1ncn(C2CC(O)C(CO)O2)c(=O)n1 (stereo not drawn) + Cc1cncc(-c2nc(NCCc3c[nH]c4ccccc34)c3ncn(C(C)C)c3n2)c1,70.7%

# Same assay, conditions: second compound 3.16 µM; first compound 0.01 µM; stronger effect = lower value
row,SMILES,"viability, T/C"
1,CC[C@@]1(O)C(=O)OCc2c1cc1n(c2=O)Cc2cc3c(CN(C)C)c(O)ccc3nc2-1 + Cc1cncc(-c2nc(NCCc3c[nH]c4ccccc34)c3ncn(C(C)C)c3n2)c1,59.4%
2,Nc1ncn(C2CC(O)C(CO)O2)c(=O)n1 (stereo not drawn) + Cc1cncc(-c2nc(NCCc3c[nH]c4ccccc34)c3ncn(C(C)C)c3n2)c1,71.9%

# Same assay, conditions: second compound 3.16 µM; first compound 0.0316 µM; stronger effect = lower value
row,SMILES,"viability, T/C"
1,CC[C@@]1(O)C(=O)OCc2c1cc1n(c2=O)Cc2cc3c(CN(C)C)c(O)ccc3nc2-1 + Cc1cncc(-c2nc(NCCc3c[nH]c4ccccc34)c3ncn(C(C)C)c3n2)c1,44.2%
2,COc1cc(C2c3cc4c(cc3C(OC3OC5COC(C)OC5C(O)C3O)C3COC(=O)C23)OCO4)cc(OC)c1O (stereo not drawn) + Cc1cncc(-c2nc(NCCc3c[nH]c4ccccc34)c3ncn(C(C)C)c3n2)c1,62.3%
3,COc1cccc2c1C(=O)c1c(O)c3c(c(O)c1C2=O)CC(O)(C(=O)CO)CC3OC1CC(N)C(O)C(C)O1 (stereo not drawn) + Cc1cncc(-c2nc(NCCc3c[nH]c4ccccc34)c3ncn(C(C)C)c3n2)c1,26.8%
4,Nc1ccn(C2OC(CO)C(O)C2(F)F)c(=O)n1 (stereo not drawn) + Cc1cncc(-c2nc(NCCc3c[nH]c4ccccc34)c3ncn(C(C)C)c3n2)c1,13.8%
5,Nc1ncn(C2CC(O)C(CO)O2)c(=O)n1 (stereo not drawn) + Cc1cncc(-c2nc(NCCc3c[nH]c4ccccc34)c3ncn(C(C)C)c3n2)c1,76.5%

# Same assay, conditions: second compound 3.16 µM; first compound 0.1 µM; stronger effect = lower value
row,SMILES,"viability, T/C"
1,CC[C@@]1(O)C(=O)OCc2c1cc1n(c2=O)Cc2cc3c(CN(C)C)c(O)ccc3nc2-1 + Cc1cncc(-c2nc(NCCc3c[nH]c4ccccc34)c3ncn(C(C)C)c3n2)c1,22.2%
2,COc1cc(C2c3cc4c(cc3C(OC3OC5COC(C)OC5C(O)C3O)C3COC(=O)C23)OCO4)cc(OC)c1O (stereo not drawn) + Cc1cncc(-c2nc(NCCc3c[nH]c4ccccc34)c3ncn(C(C)C)c3n2)c1,62.5%
3,COc1cccc2c1C(=O)c1c(O)c3c(c(O)c1C2=O)CC(O)(C(=O)CO)CC3OC1CC(N)C(O)C(C)O1 (stereo not drawn) + Cc1cncc(-c2nc(NCCc3c[nH]c4ccccc34)c3ncn(C(C)C)c3n2)c1,22.1%
4,Nc1ccn(C2OC(CO)C(O)C2(F)F)c(=O)n1 (stereo not drawn) + Cc1cncc(-c2nc(NCCc3c[nH]c4ccccc34)c3ncn(C(C)C)c3n2)c1,12.3%
5,Nc1ncn(C2CC(O)C(CO)O2)c(=O)n1 (stereo not drawn) + Cc1cncc(-c2nc(NCCc3c[nH]c4ccccc34)c3ncn(C(C)C)c3n2)c1,67.6%
